According to patent publication US20230263825A1, “ANTI-CANCER ACTIVITY OF PERBORATE SALTS” (priority 2020, published 2023):

Assays:
Assay type in all cases: cell-based
[1] = test system: DMS114 cells (small cell lung cancer cells); assay: Flow cytometry (Annexin V / PI) cell death pathways; conditions: 15 μg/mL, 3 days
Description: (§1) Cell death pathways were analysed using the Annexin V method, performed by flow cytometry. In this method, Annexin V dye is used to detect cells entering the apoptosis death pathway (Sigma-Aldrich Cat No: 11858777001), while PI (Propidium Iodide) dye is used to detect cells entering the necrosis death pathway (Sigma-Aldrich Cat No: 11858777001).
(§2) Cells were grown in complete RPMI media (completed with 10% Fetal Bovine Serum and 1% penicillin streptomycin amphotericin) in a humidified CO2 incubator (80% humidity, 5% CO2 and 37° C.). At 70-80% confluency, cells were harvested using Trypsin/EDTA solution. After 3 days of sodium perborate tetrahydrate treatment (15 μg/mL), the cells were harvested and divided into 4 equal tubes. […] Only PI dye was placed in the second tube and necrotic cells were detected. Annexin V dye was placed in the third tube and apoptotic cells were detected. In the fourth tube, two dyes were put together. […] On the other hand, over 90% of MRC5 cells were alive in the control as well as following treatment with sodium perborate tetrahydrate, with only a small percentage (<5%) of treated cells in necrosis.

[2] = test system: MRC5 cells (healthy lung cells); assay: as above; conditions: 15 μg/mL, 3 days
Description: as §1, §2

[3] = test system: DMS114 cells (small cell lung cancer cells); assay: MTS cytotoxicity assay
Description: (§3) An MTS reduction (MTS (3-(4,5-dimethylthiazol-2-yl)-5-(3-carboxymethoxyphenyl)-2-(4-sulfophenyl)-2H-tetrazolium) assay) was conducted to analyze the cytotoxic effect of sodium perborate tetrahydrate on lung, chordoma and pancreatic cells and normal cells. In this method, cell viability is determined via the activity of mitochondrial dehydrogenase enzyme, which reduces the tetrazolium dye MTS to its […] formazan (absorbance maximum of 490 nm in PBS).
(§4) Cells were counted and seeded in 96-well culture dishes. […] The positive control comprised 20% Dimethyl Sulfoxide and the negative control comprised complete growth media. Seeding densities were as follows: DMS114: 20.000 cells/well; MRC5: 5.000 cells/well; CH22: 2.000 cells/well; JHC7, UM-Chor1, MUG-Chor1, UCH1 and NPH: 5.000 cells/well; PSN1: 10.000 cells/well; BxPC3 and ASPC: 7.500 cells/well. The effect of sodium perborate tetrahydrate on cell viability was measured as follows. The cell culture medium was discarded and 100 μl of MTS solution (10% glucose solution and 1% MTS-PMS solution in PBS) was added into each well. After 1 hour incubation in a humidified incubator, an absorbance reading was taken to determine mitochondrial dehydrogenase activity and cell survival was calculated relative to the negative control.

[4] = test system: chordoma (CH22, JHC7, UM-Chor1, MUG-Chor1, U-CH1) cells; assay: MTS cytotoxicity assay
Description: as §3, §4

normal cells (MRC5, NPH) = assay: MTS cytotoxicity assay
Description: as §3, §4

[5] = test system: pancreatic cancer (PSN1, BxPC3 and ASPC) cells; assay: MTS cytotoxicity assay
Description: as §3, §4

Which cells alive [1] does the source give for `O.O.O.O.[Na+].[O-]B1OO1` [sodium perborate tetrahydrate] here?
The cells alive was “less than 5%”.

What about the “cells in early apoptosis” value [1] of the same compound?
Its value is about 80%.

And the “cells in late apoptosis” value [1]?
The value was about 10%.

And the “damage to healthy cells (MRC5) relative to cancer cells (DMS114), times less” value [2]?
Its value is “approximately 5 times”.

And the cells alive ([2]; MRC5)?
Its cells alive is “over 90%”.

What about the “treated cells in necrosis” value ([2]; MRC5) of the same compound?
The value was “less than 5%”.

What about the “cell survival of lung cancer cell lines” value [3] of the same compound?
The value was “effective in decreasing cell survival”.

And the “EC50 (dose that kills 50% of cells)” value ([3]; DMS114)?
The value was 15 µg/mL.

And the “time to maximum effect on DMS114 cells” value ([3]; FIG. 3A)?
Its value is at most 1 days.

What about the “toxicity compared with other boron derivatives” value ([3]; FIGS. 23A-C, same biological model) of the same compound?
The value was “significantly less toxic than boric acid and sodium pentaborate pentahydrate”.

What about the “cell survival of chordoma cell lines” value [4] of the same compound?
The value was “effective in decreasing cell survival”.

And the “cell survival of normal cell lines” value (normal cells (MRC5, NPH))?
The value was “minimal impact on the cell survival”.

And the “cell survival of pancreatic cell lines” value [5]?
Its value is “effective in decreasing cell survival”.
